Reference: US20190359645A1, “2'3'-CYCLIC DINUCLEOTIDES COMPRISING CARBOCYCLIC NUCLEOTIDE” (Institute of Organic Chemistry and Biochemistry ASCR, V.V.I., priority 2018, published 2019)
Where two headings read alike, the source gives them in different places.

Experiments:
AQ STING (G230A-R293Q) = target: T1, AQ STING (G230A-R293Q) (Homo sapiens, UniProt Q86WV6, G230A/H232R/R293Q); test: Differential scanning fluorimetry (DSF) with AQ STING; assay type: binding; conditions: for ΔTm at 150 µM: read-out: DSF ΔTm AQ STING
T1 construct: truncated human WT STING or AQ STING (amino acid residues 140-343); 8xHis (N, cleaved yes); SUMO (N, cleaved yes); made in house; host or cells: E. coli Rosetta-gami B (DE3)
T1 sequence (Q86WV6 140-343 G230A/H232R/R293Q): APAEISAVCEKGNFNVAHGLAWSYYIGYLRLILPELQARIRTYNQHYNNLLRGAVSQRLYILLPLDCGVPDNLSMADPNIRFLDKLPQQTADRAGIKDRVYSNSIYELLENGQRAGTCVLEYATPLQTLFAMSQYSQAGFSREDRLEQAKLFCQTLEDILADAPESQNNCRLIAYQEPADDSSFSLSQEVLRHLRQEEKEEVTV
Description: (§1) Both WT and AQ human STING (G230A-R^293Q) cDNA were amplified by the use of PCR (Phusion® High-Fidelity DNA Polymerase, cat. # M0530S, NEB, Ipswich, USA) using oligonucleotides hSTING140-BamH-For ([…]) (SEQ ID NO:5) and hSTING379-Not-Rev3 ([…]) (SEQ ID NO:6) from pUNOI-hSTING-WT (cat. # punol-hstingwt, InvivoGen, San Diego, USA) and pUNO1-hSTING-HAQ plasmids (punol-hsting-haq, InvivoGen, San Diego, USA). Purified PCR products were cleaved with restriction enzymes BamHI (cat. # R^0136S, NEB, Ipswich, USA) and NotI (cat. # R^0189S, NEB, Ipswich, USA) and cloned into the pSUMO vector linearized with the identical enzymes. Plasmid pSUMO was created by introducing 8-His-SUMO sequence between NdeI and BamHI sites of pHis-parallel2 plasmid (Clontech, Moutain View, USA). pSUMO-STING WT or pSUMO-STING AQ plasmids thus encoded truncated human WT STING or AQ STING (amino acid residues 140-343) with N-terminal 8×His and SUMO tag.
(§2) The recombinant WT STING and AQ STING proteins were overexpressed in Rosetta-gami B (DE3) competent cells (cat. #71136-3, Merck Millipore, Billerica, USA). Bacterial pellets were re-suspended in ice-cold lysis buffer containing 50 mmol·l^−1 TrisCl (cat. # T1503, Sigma Aldrich, Czech Republic) pH 8.0, 300 mmol·l^−1 NaCl, 3 mmol·l^−1 (3-mercaptoethanol (cat. # M6250, Sigma Aldrich, Czech Republic), 10% glycerol (cat. #G5516, Sigma Aldrich, Czech Republic) and 20 mmol·l^−1 imidazole (cat. #15513, Sigma Aldrich, Czech Republic) using Dounce homogenizer. DNase I (cat. # D5025, Sigma Aldrich, Czech Republic) and RNase A (cat. # R^6513, Sigma Aldrich, Czech Republic) were added (final concentration 50 μg/ml) together with MgCl2 (final concentration 5 mmol·l^−1) to the homogenate and bacteria were lysed using French Press G-M™ High-Pressure Cell Press Homogenizer (1500 psi, 3 cycles). Lysate was spun 30,000 g for 20 minutes and supernatant was gently stirred with Ni-NTA resin (cat. #745400.25 Macherey-Nagel, Duren, Germany) for 30 minutes. The resin was poured into a chromatography column, washed with 50 ml buffer A (50 mmol·l^−1 TrisCl (pH 8.0), 800 mmol·l^−1 NaCl, 3 mmol·l^−1β-mercaptoethanol; 10% glycerol; 20 mmol·l^−1 imidazole) and 8-His-SUMO tagged STING proteins were eluted with 15 ml buffer A containing 300 mmol·l^−1 imidazole. The eluted proteins were cleaved with recombinant SUMO protease (80 pig/ml of protein solution, cat. #12588018, ThermoFisher, Waltham, USA). The proteins were further purified by size exclusion chromatography using HiLoad 16/60 Superdex 75 (cat. #28989333, GE Healthcare Bio-Sciences, Pittsburgh, USA) in 50 mmol·l^−1 Tris C1 buffer pH 7.4 containing 150 mmol·l^−1 NaCl, and 10% glycerol. Proteins were concentrated with Amicon® Ultra-15 10 K device (cat. # UFC901008, Merck Millipore, Billerica, USA) and flash frozen in liquid N2.
(§3) WT and AQ allelic forms of STING protein were diluted to the final concentration 0.1 mg/ml in 100 mmol·l^−1 TrisCl buffer pH 7.4 containing, 150 mmol·l^−1 NaCl, 1:500 SYPRO Orange (cat. # S6650, ThermoFisher, Waltham, USA) and 150 μM CDN or water. 20 μL solutions of the reaction mixtures were pipetted in triplicates into 96 well optical reaction plates and thermal denaturation of samples were performed on real time PCR cycler (LightCycler® 480 Instrument II—Roche, Basel, Switzerland). The first derivative of the thermal denaturation curves was performed to calculate denaturing temperatures of STING-CDN complexes and STING apoproteins. The thermal shift for each CDN was calculated by subtracting the average denaturing temperature of STING apoprotein from the average denaturing temperature of STING CDN complex.

WT STING = WT STING (Homo sapiens, UniProt Q86WV6, H232R); test: Differential scanning fluorimetry (DSF) with WT STING; assay type: binding; set-up: truncated human WT STING or AQ STING (amino acid residues 140-343); 8xHis (N, cleaved yes); SUMO (N, cleaved yes); made in house; host or cells: E. coli Rosetta-gami B (DE3); conditions: for ΔTm at 150 µM: read-out: DSF ΔTm WT STING
Chain of WT STING (Q86WV6 140-343 H232R): as the sequence (Q86WV6 140-343 G230A/H232R/R293Q) above, with A91G, Q154R counted along it
Description: as §1, §2, §3

[1] = thermal shift, truncated human AQ STING 0.1 mg/ml, 150 μM CDN
[2] = thermal shift, truncated human WT STING 0.1 mg/ml, 150 μM CDN

Row | ΔTm at 150 µM (AQ STING (G230A-R293Q); [1]) | ΔTm at 150 µM (WT STING; [2]) | SMILES | other results
1 | 15.8 °C | 8.4 °C | Nc1ncnc2c1ncn2[C@@H]1O[C@@H]2COP(=O)(O)O[C@@H]3[C@@H](F)[C@@H](COP(=O)(O)O[C@H]2[C@H]1O)C[C@H]3n1cnc2c(=O)[nH]cnc21 [Compound 126, (1S,6R,8R,9R,10S,15R,17R,18S)-8-(6-amino-9H-purin-9-yl)-18-fluoro-3,9,12-trihydroxy-17-(6-oxo-6,9-dihydro-1H-purin-9-yl)-2,4,7,11,13-pentaoxa-3λ^5,12λ^5-diphosphatricyclo[13.2.1.0^6,10]octadecane-3,12-dione] | 
2 | 14.6 °C | 6.7 °C | Nc1ncnc2c1ccn2[C@@H]1O[C@@H]2COP(=O)(O)OC3C(O)[C@@H](COP(=O)(O)OC2C1O)C[C@H]3n1cnc2c(=O)[nH]cnc21 (stereo partly drawn) [Compound 122, (6R,8R,15R,17R)-8-{4-amino-7H-pyrrolo[2,3-d]pyrimidin-7-yl}-3,9,12,18-tetrahydroxy-17-(6-oxo-6,9-dihydro-1H-purin-9-yl)-2,4,7,11,13-pentaoxa-3λ^5,12λ^5-diphosphatricyclo[13.2.1.0^6,10]octadecane-3,12-dione] | 
3 | 8.9 °C | 0.9 °C | Nc1nc2c(ncn2[C@@H]2C[C@@H]3COP(=O)(O)OC4C(O)[C@H](n5nnc6c(N)ncnc65)O[C@@H]4COP(=O)(O)OC2C3O)c(=O)[nH]1 (stereo partly drawn) [Compound 116, (6R,8R,15R,17R)-8-{7-amino-3H-[1,2,3]triazolo[4,5-d]pyrimidin-3-yl}-17-(2-amino-6-oxo-6,9-dihydro-1H-purin-9-yl)-3,9,12,18-tetrahydroxy-2,4,7,11,13-pentaoxa-3λ^5,12λ^5-diphosphatricyclo[13.2.1.0^6,10]octadecane-3,12-dione] | 
4 | 14.2 °C | 6.3 °C | Nc1nc2c(ncn2[C@@H]2C[C@@H]3COP(=O)(O)OC4C(O)[C@H](n5cnc6c(Cl)ncnc65)O[C@@H]4COP(=O)(O)OC2C3O)c(=O)[nH]1 (stereo partly drawn) [Compound 115, (6R,8R,15R,17R)-17-(2-amino-6-oxo-6,9-dihydro-1H-purin-9-yl)-8-(6-chloro-9H-purin-9-yl)-3,9,12,18-tetrahydroxy-2,4,7,11,13-pentaoxa-3λ^5,12λ^5-diphosphatricyclo[13.2.1.0^6,10]octadecane-3,12-dione] | 
5 | 10.3 °C | 4.4 °C | C#Cc1cn([C@@H]2O[C@@H]3COP(=O)(O)OC4C(O)[C@@H](COP(=O)(O)OC3C2O)C[C@H]4n2cnc3c(=O)[nH]c(N)nc32)c2ncnc(N)c12 (stereo partly drawn) [Compound 114, (6R,8R,15R,17R)-8-{4-amino-5-ethynyl-7H-pyrrolo 2,3-dlpyrimidin-7-yl}-17-(2-amino-6-oxo-6,9-dihydro-1H-purin-9-yl)-3,9,12,18-tetrahydroxy-2,4,7,11,13-pentaoxa-3λ^5,12λ^5-diphosphatricyclo[13.2.1.0^6,10]octadecane-3,12-dione] | 
6 | 11.4 °C | 4.2 °C | CSc1ncnc2c1ncn2[C@@H]1O[C@@H]2COP(=O)(O)OC3C(O)[C@@H](COP(=O)(O)OC2C1O)C[C@H]3n1cnc2c(=O)[nH]cnc21 (stereo partly drawn) [Compound 125, (1S,6R,8R,9R,10S,15R,17R,18R)-3,9,12,18-tetrahydroxy-8-[16-(methylsulfanyl)-9H-purin-9-yl]-17-(6-oxo-6,9-dihydro-1H-purin-9-yl)-2,4,7,11,13-pentaoxa-3λ^5,12λ^5-diphosphatricyclo[13.2.1.0^6,10]octadecane-3,12-dione] | 

The remaining lines, values behind:

Row | SMILES | ΔTm at 150 µM (AQ STING (G230A-R293Q); [1]) | ΔTm at 150 µM (WT STING; [2]) | other results
7 | CSc1nc(N)nc2c1ncn2[C@@H]1O[C@@H]2COP(=O)(O)OC3C(O)[C@@H](COP(=O)(O)OC2C1O)C[C@H]3n1cnc2c(=O)[nH]c(N)nc21 (stereo partly drawn) [Compound 112, (6R,8R,15R,17R)-8-[2-amino-6-(methylsulfanyl)-9H-purin-9-yl]-17-(2-amino-6-oxo-6,9-dihydro-1H-purin-9-yl)-3,9,12,18-tetrahydroxy-2,4,7,11,13-pentaoxa-3λ^5,12λ^5-diphosphatricyclo[13.2.1.0^6,10]octadecane-3,12-dione] | 4.7 °C | 0.6 °C | 
8 | Nc1ncnc2c1ncn2[C@@H]1O[C@@H]2COP(=O)(S)O[C@@H]3[C@H](F)[C@@H](COP(=O)(S)O[C@H]2[C@H]1F)C[C@H]3n1cnc2c(=O)[nH]cnc21 (single isomer, unassigned) [Compound 128b] |  |  | DSF ΔTm AQ STING (AQ STING (G230A-R293Q); [1]): 13.8 °C; DSF ΔTm WT STING (WT STING; [2]): 7.9 °C
9 | Nc1nc2c(ncn2[C@@H]2C[C@@H]3COP(=O)(O)OC4C(O)[C@H](n5cnc6c(N)ncnc65)O[C@@H]4COP(=O)(O)OC2C3O)c(=O)[nH]1 (stereo partly drawn) [Compound 102, (6R,8R,15R,17R)-17-(2-amino-6-oxo-6,9-dihydro-1H-purin-9-yl)-8-(6-amino-9H-purin-9-yl)-3,9,12,18-tetrahydroxy-2,4,7,11,13-pentaoxa-3λ^5,12λ^5-diphosphatricyclo[13.2.1.0^6,10]octadecane-3,12-dione] | 19.8 °C | 13.3 °C | 
10 | Nc1nc2c(ncn2[C@@H]2C[C@@H]3COP(=O)(O)OC4C(O)[C@H](n5cnc6c(N)ncnc65)O[C@@H]4COP(O)(=S)OC2C3O)c(=O)[nH]1 (stereo partly drawn) [Compound 101, 2-amino-9-[(6R,8R,15R,17R)-8-(6-amino-9H-purin-9-yl)-3,9,12,18-tetrahydroxy-12-oxo-3-sulfanylidene-2,4,7,11,13-pentaoxa-3λ^5,12λ^5-diphosphatricyclo[13.2.1.0^6,10]octadecan-17-yl]-6,9-dihydro-1H-purin-6-one] |  |  | ΔTm at 150 µM (AQ STING (G230A-R293Q)): 19.8 °C; ΔTm at 150 µM (WT STING): 12 °C
11 | CNc1ncnc2c1ncn2[C@@H]1O[C@@H]2COP(=O)(O)OC3C(O)[C@@H](COP(=O)(O)OC2C1O)C[C@H]3n1cnc2c(=O)[nH]c(N)nc21 (stereo partly drawn) [Compound 108, (6R,8R,15R,17R)-17-(2-amino-6-oxo-6,9-dihydro-1H-purin-9-yl)-3,9,12,18-tetrahydroxy-8-[6-(methylamino)-9H-purin-9-yl]-2,4,7,11,13-pentaoxa-3λ^5,12λ^5-diphosphatricyclo[13.2.1.0^6,10]octadecane-3,12-dione] | 12.5 °C | 6 °C | 
12 | Nc1nc2c(ncn2[C@@H]2C[C@@H]3COP(=O)(O)OC4C(O)[C@H](n5cnc6c(=O)[nH]cnc65)O[C@@H]4COP(=O)(O)OC2C3O)c(=O)[nH]1 (stereo partly drawn) [Compound 104, (6R,8R,15R,17R)-17-(2-amino-6-oxo-6,9-dihydro-1H-purin-9-yl)-3,9,12,18-tetrahydroxy-8-(6-oxo-6,9-dihydro-1H-purin-9-yl)-2,4,7,11,13-pentaoxa-3λ^5,12λ^5-diphosphatricyclo[13.2.1.0^6,10]octadecane-3,12-dione] | 13.3 °C | 5 °C | 
